# Results: patent US5001154A, “Fervescence composition” (K.K. Ueno Seiyaku Oyo Kenkyujo, priority 1987, dated 1991)
# Key:
# [1] = fervescence activity by intravenous injection (rising of body temperature), 1 mg/kg; type: in vivo, Wister male rats; conditions: 1 mg/kg intravenous, urethane-anesthetized rats
# Description: fervescence activity by intravenous injection Test animals were Wister male rats (8 weeks old) weighing 200±10 g. The rats were applied to anesthesia by intraperitoneal injection of 1.25 g/kg of urethane. Each test drug was dissolved into ethyl alcohol. The ethyl alcohol solution was diluted with Ringer's solution at least 50 times just before use and 1 mg/kg of the each test drug was intravenously administered. Body temperature was measured in the same manner as in Example 1. Ringer's solution containing ethyl alcohol was administered as control. Rising of body temperature is shown by the rising degree (°C.) from the temperature before administration.
# [2] = sedation activity and rising of body temperature in dog; type: in vivo, hybrid adult dog; conditions: intravenous; for Rising of Body Temperature: 0.5 mg/kg
# Excerpt: Sedation Activity A 19-methyl type compound having strong fervescence activity was compared with PGE2 […] sedation activity. A hybrid adult dog was held on a holder for dog and intravenously administered with a test drug dissolved in Ringer's solutions at the forefoot. Sedation activity was judged as follows: Sedation Degree 1: Disappearance of body movement 2: Closing of the eyes 3: Leaning on the holding belt
# [3] = fervescence activity by intracerebroventricular injection (rising of body temperature); type: in vivo, Wister male rats; conditions: 400 ng in 3 μl into lateral ventricle, urethane-anesthetized rats, rectal temperature
# Description: fervescence activity by intracerebroventricular injection
# Wister male rats (8 weeks old) were used as test animals.
# Rats were applied to anesthesia by intraperitoneal injection with 1.25 g/kg of urethane and a stainless guide cannula was inserted into the lateral ventricle for administration of a test drug according to Pellegrino's Rat brain atras.
# Each test drug was dissolved into an artificial cerebrospinal fluid and 400 ng as drug in 3 μl was injected through the injection cannula for 15 seconds. The artificial cerebrospinal fluid alone was injected as control. Body temperature was measured continuously at the rectum. Rising of body temperature is shown by the rising degree (°C.) from the temperature before administration.
# [4] = fervescence (recovery of body temperature) activity at hemorrhage load; type: in vivo, Wister male rats; conditions: rat loaded with hemorrhage
# Description: fervescence (recovery of body temperature) activity at hemorrhage load
# Wister male rats (weight: 200 g) were subcutaneously injected on the back with 1.5 g/kg of urethane, subjected to anesthesia. Hemorrhage was then induced by withdrawal of blood by puncture of the heart for the total volume of 3 ml equivalent to 1.5% of the body weight. After kept in a room for 60 minutes, the rats were administered intravenously with test solutions prepared by dissolving test drugs into Ringer's solution so as to administer the rat at a dose of 0.5 or 1 mg/kg, and change of the body temperature was observed. Ringer's solution was administered as control.
# In the figures, (1), (2) and (3) correspond to the results of administration of doses 1 mg/kg, 0.5 mg/kg and Ringer's solution alone, respectively.
SMILES,Rising of Body Temperature [1],further results
CCCCCC(=O)CC[C@H]1[C@H](O)CC(=O)[C@@H]1CC(=O)CCCCC(=O)OCC (relative stereo) [compound 9],+0.7 °C,
"CCCCC[C@H](O)/C=C/[C@H]1[C@H](O)CC(=O)[C@@H]1C/C=C\CCCC(=O)OC [Test drug 59, PGE2 methyl ester, reference compound]",,sedation activity (in words) [2]: clear sedation activity
CCCCCC(=O)CC[C@H]1[C@H](O)CC(=O)[C@@H]1CCCCCCC(=O)O [compound 1],0 °C,Rising of Body Temperature [3]: +0.4 °C
CCCCCC(=O)CC[C@H]1[C@H](O)CC(=O)[C@@H]1CCCCC=CC(=O)O [compound 3],0 °C,
CCCCCC(=O)CC[C@H]1[C@H](O)CC(=O)[C@@H]1CCCCC=CC(=O)OC [compound 4],+0.8 °C,
CCCCCCCC(=O)CC[C@H]1[C@H](O)CC(=O)[C@@H]1CCCCCCC(=O)OC [compound 5],+0.4 °C,
CCCCCC(=O)CC[C@H]1[C@H](O)CC(=O)[C@@H]1CC(=O)CCCCC(=O)O [compound 6],0 °C,Rising of Body Temperature [3]: +0.8 °C
CCCCCC(=O)CC[C@H]1[C@H](O)CC(=O)[C@@H]1CC(=O)CCCCC(=O)OC [compound 7],+0.8 °C,Rising of Body Temperature [3]: +0.6 °C
CCCCCC(=O)CC[C@H]1[C@H](O)CC(=O)[C@@H]1CC(=O)CCCCC(=O)OCC [compound 8],+0.6 °C,Rising of Body Temperature [3]: +0.4 °C; Rising of Body Temperature ([4]; 0.5 mg/kg intravenous): +0.7 °C; Rising of Body Temperature ([4]; 1 mg/kg intravenous): +0.8 °C
CCCCCC(=O)CC[C@H]1[C@H](O)CC(=O)[C@@H]1CC(=O)CCCCC(=O)OCCCC [compound 10],+0.2 °C,
CCCCC(C)C(=O)CC[C@H]1[C@H](O)CC(=O)[C@@H]1CC(=O)CCCCC(=O)OC (stereo partly drawn) [compound 11],+1.5 °C,
CCCCC(C)C(=O)CC[C@H]1[C@H](O)CC(=O)[C@@H]1CC(=O)CCCCC(=O)OCC (stereo partly drawn) [compound 12],+0.9 °C,
CCCCC(C)(C)C(=O)CC[C@H]1[C@H](O)CC(=O)[C@@H]1CC(=O)CCCCC(=O)OCC [compound 13],+1.1 °C,
CCCCC(F)C(=O)CC[C@H]1[C@H](O)CC(=O)[C@@H]1CC(=O)CCCCC(=O)OCC (stereo partly drawn) [compound 14],+1.0 °C,
COC(=O)CCCCC(=O)C[C@H]1C(=O)C[C@@H](O)[C@@H]1CCC(=O)CCCC(C)C [compound 15],+0.7 °C,Rising of Body Temperature [2]: 1.2 °C
COC(=O)CCCCC(=O)C[C@H]1C(=O)C[C@@H](CO)[C@@H]1CCC(=O)CCCC(C)C [compound 17],+0.4 °C,
CCCCCCC(=O)CC[C@H]1[C@H](O)CC(=O)[C@@H]1CC(=O)CCCCC(=O)OCC [compound 18],+0.7 °C,Rising of Body Temperature ([4]; 0.5 mg/kg intravenous): +0.4 °C; Rising of Body Temperature ([4]; 1 mg/kg intravenous): +0.8 °C
CCCCCC(=O)CC[C@H]1[C@H](C)CC(=O)[C@@H]1CC(=O)CCCCC(=O)OC [compound 19],+1.0 °C,
CCCCCC(=O)CC[C@H]1[C@H](C)CC(=O)[C@@H]1CC(=O)CCCCC(=O)OCC [compound 20],+1.3 °C,Rising of Body Temperature ([4]; 0.5 mg/kg intravenous): +0.5 °C; Rising of Body Temperature ([4]; 1 mg/kg intravenous): +0.8 °C
CCCCC(F)C(=O)CC[C@H]1[C@H](C)CC(=O)[C@@H]1CC(=O)CCCCC(=O)OCC (stereo partly drawn) [compound 21],+1.1 °C,
CCCCCC(=O)CC[C@H]1[C@H](O)CC(=O)[C@@H]1C/C=C\CCCC(=O)O [compound 22],0 °C,Rising of Body Temperature [3]: +0.7 °C
CCCCCC(=O)CC[C@H]1[C@H](O)CC(=O)[C@@H]1C/C=C\CCCC(=O)OCc1ccccc1 [compound 27],+0.3 °C,
CCCCCC(=O)CC[C@H]1[C@H](O)CC(=O)[C@@H]1C/C=C\CCCC(=O)OCCO [compound 28],+0.4 °C,
CCCCCC(=O)CC[C@H]1[C@H](O)CC(=O)[C@@H]1C/C=C\CC=CC(=O)OC [compound 29],+1.0 °C,
CCCCCC(=O)CC[C@H]1[C@H](O)CC(=O)[C@@H]1C/C=C\CC(C)CC(=O)OC (stereo partly drawn) [compound 30],+1.7 °C,
CCCCCC(=O)CC[C@H]1[C@H](O)CC(=O)[C@@H]1C/C=C\CC(C)CC(=O)OCC (stereo partly drawn) [compound 31],+1.0 °C,
CCCCC(C)C(=O)CC[C@H]1[C@H](O)CC(=O)[C@@H]1C/C=C\CCCC(=O)OC (stereo partly drawn) [compound 32],+1.4 °C,

SMILES,Rising of Body Temperature [1],further results
CCCCC(C)C(=O)CC[C@H]1[C@H](O)CC(=O)[C@@H]1C/C=C\CCCC(=O)OCC (stereo partly drawn) [compound 33],+0.9 °C,
CCCCC(C)C(=O)CC[C@H]1[C@H](O)CC(=O)[C@@H]1C/C=C\CC(C)CC(=O)OC (stereo partly drawn) [compound 34],+1.0 °C,
CCCCC(C)(C)C(=O)CC[C@H]1[C@H](O)CC(=O)[C@@H]1C/C=C\CCCC(=O)OC [compound 35],+1.0 °C,
CCCCC(C)(C)C(=O)CC[C@H]1[C@H](O)CC(=O)[C@@H]1C/C=C\CCCC(=O)OCC [compound 36],+0.6 °C,
CCCCC(O)C(=O)CC[C@H]1[C@H](O)CC(=O)[C@@H]1C/C=C\CCCC(=O)OCC (stereo partly drawn) [compound 37],+0.2 °C,
CCCCC(F)C(=O)CC[C@H]1[C@H](O)CC(=O)[C@@H]1C/C=C\CCCC(=O)O (stereo partly drawn) [compound 38],+0.3 °C,
CCCCC(F)C(=O)CC[C@H]1[C@H](O)CC(=O)[C@@H]1C/C=C\CCCC(=O)OC (stereo partly drawn) [compound 39],+0.9 °C,
CCCCC(F)C(=O)CC[C@H]1[C@H](O)CC(=O)[C@@H]1C/C=C\CCCC(=O)OCC (stereo partly drawn) [compound 40],+1.4 °C,
CCCCCC(F)C(=O)CC[C@H]1[C@H](O)CC(=O)[C@@H]1C/C=C\CCCC(=O)OC (stereo partly drawn) [compound 41],+0.8 °C,
CCCCC(F)C(=O)CC[C@H]1[C@H](C)CC(=O)[C@@H]1C/C=C\CCCC(=O)OCC (stereo partly drawn) [compound 42],+1.4 °C,
CCCCCC(=O)CC[C@H]1[C@H](C)CC(=O)[C@@H]1C/C=C\CCCC(=O)OCC [compound 43],+0.2 °C,
CCC[C@H](C)CC(=O)CC[C@H]1[C@H](O)CC(=O)[C@@H]1C/C=C\CCCC(=O)OC [compound 44],+0.2 °C,
COC(=O)CCC/C=C\C[C@H]1C(=O)C[C@@H](O)[C@@H]1CCC(=O)CCCC(C)C [compound 45],+2.0 °C,Rising of Body Temperature [2]: 0.5 °C
CCOC(=O)CCC/C=C\C[C@H]1C(=O)C[C@@H](O)[C@@H]1CCC(=O)CCCC(C)C [compound 46],+0.6 °C,
COCCCCCC(=O)CC[C@H]1[C@H](O)CC(=O)[C@@H]1C/C=C\CCCC(=O)OC [compound 47],+0.3 °C,
COCCCCCC(=O)CC[C@H]1[C@H](O)CC(=O)[C@@H]1C/C=C\CC=CC(=O)OC [compound 48],+0.2 °C,
COCCCCCC(=O)CC[C@H]1[C@H](O)CC(=O)[C@@H]1C/C=C\CC(C)CC(=O)OC (stereo partly drawn) [compound 49],+0.2 °C,
COCCCCC(C)(C)C(=O)CC[C@H]1[C@H](O)CC(=O)[C@@H]1C/C=C\CCCC(=O)OC [compound 50],+0.2 °C,
CC(C)=CCCCCC(=O)CC[C@H]1[C@H](O)CC(=O)[C@@H]1C/C=C\CCCC(=O)O [compound 51],+0.2 °C,
COC(=O)CCC/C=C\C[C@H]1C(=O)C[C@@H](O)[C@@H]1CCC(=O)CCCCC=C(C)C [compound 52],+0.2 °C,
CCCCCCCC(=O)CC[C@H]1[C@H](O)CC(=O)[C@@H]1C/C=C\CCCC(=O)OC [compound 53],+0.5 °C,
CCCCCCCC(=O)CC[C@H]1[C@H](O)CC(=O)[C@@H]1C/C=C\CCCC(=O)OCC [compound 54],+0.2 °C,
CCCCCCCC(=O)CC[C@H]1[C@H](C)CC(=O)[C@@H]1C/C=C\CCCC(=O)OC [compound 55],+0.2 °C,
CCCCC(F)C(=O)/C=C/[C@H]1[C@H](O)CC(=O)[C@@H]1C/C=C\CCCC(=O)OC (stereo partly drawn) [compound 56],+1.0 °C,
CCCCC[C@H](O)/C=C/[C@H]1[C@H](O)CC(=O)[C@@H]1CCCCCCC(=O)O [compound 57],0 °C,
CCCCC[C@H](O)/C=C/[C@H]1[C@H](O)CC(=O)[C@@H]1C/C=C\CCCC(=O)O [compound 58],+0.7 °C,
